In ChEMBL document CHEMBL5303304, “EUbOPEN Chemogenomics Library - IncuCyte” (2023):

Legend:
Assay type in all cases: toxicity, cell-based
U2OS = assay: Incucyte cell viability with U2OS; details: human, 10 µM, compound concentration 10 uM
HEK-293T = assay: Incucyte cell viability with HEK293T; details: human, 10 µM, compound concentration 10 uM
Fibroblast = assay: Incucyte cell viability with human fibroblast; details: 10 µM, compound concentration 10 uM
Also: unitless GR value; below 1 slowed growth and below 0 cell loss.

| Structure (SMILES) | Growth Rate (U2OS; 6 h, replicate number 2) | Growth Rate (U2OS; 12 h, replicate number 1) | Growth Rate (U2OS; 18 h, replicate number 1) | Growth Rate (U2OS; 24 h, replicate number 1) | Growth Rate (U2OS; 24 h, replicate number 2) | Growth Rate (HEK-293T; 6 h, replicate number 1) | Growth Rate (HEK-293T; 6 h, replicate number 2) | Growth Rate (HEK-293T; 12 h, replicate number 1) | Growth Rate (HEK-293T; 12 h, replicate number 2) | Growth Rate (HEK-293T; 18 h, replicate number 1) | Growth Rate (HEK-293T; 18 h, replicate number 2) | Growth Rate (HEK-293T; 24 h, replicate number 1) | Growth Rate (HEK-293T; 24 h, replicate number 2) | Growth Rate (Fibroblast; 12 h, replicate number 1) | Growth Rate (Fibroblast; 12 h, replicate number 2) | Growth Rate (Fibroblast; 18 h, replicate number 1) | Growth Rate (Fibroblast; 18 h, replicate number 2) | Growth Rate (Fibroblast; 24 h, replicate number 1) | Growth Rate (Fibroblast; 24 h, replicate number 2) | Growth Rate (Fibroblast; 6 h, replicate number 1) | other results |
| --- | --- | --- | --- | --- | --- | --- | --- | --- | --- | --- | --- | --- | --- | --- | --- | --- | --- | --- | --- | --- | --- |
| COc1cc(C(=O)NC2CCN(C)CC2)ccc1Nc1ncc2c(n1)N(C1CCCC1)CC(F)(F)C(=O)N2C | 0.18 | 0.23 | 0.12 | 0.2 | -0.03 | 0.85 | -0.29 | 0.86 | -0.06 | 0.53 | -0.2 | 0.26 | -0.23 | 0.51 | 0.72 | 0.36 | 0.45 | 0.28 | 0.42 | – | Growth Rate (U2OS; 0 h, replicate number 1): -0.99; Growth Rate (U2OS; 0 h, replicate number 2): 0.71; Growth Rate (U2OS; 6 h, replicate number 1): 0.46; Growth Rate (U2OS; 12 h, replicate number 2): -0.13; Growth Rate (U2OS; 18 h, replicate number 2): -0.08 |
| COc1ccccc1-c1cc(Nc2cccc(CS(N)(=O)=O)c2)ncn1 | 0.46 | 0.51 | 0.22 | 0.46 | 0.49 | -0.26 | -0.38 | -0.07 | -0.15 | 0.16 | 0.21 | 0.38 | 0.33 | 0.63 | – | 0.61 | 0.93 | 0.52 | 0.59 | 0.43 | Growth Rate (U2OS; 6 h, replicate number 1): 0.81; Growth Rate (U2OS; 12 h, replicate number 2): 0.46; Growth Rate (U2OS; 18 h, replicate number 2): 0.43; Growth Rate (Fibroblast; 0 h, replicate number 2): -0.71 |
| Cc1cc(-c2nc(-c3ccc(OC(F)(F)F)cc3)no2)nn1Cc1ccnc(N2CCN(C3CC3)CC2)c1 | – | 0.94 | – | 0.88 | 0.71 | 0.47 | -0.22 | 0.32 | 0.08 | 0.25 | 0.18 | 0.37 | 0.3 | 0.3 | 0.36 | 0.22 | 0.2 | 0.26 | 0.5 | 0.9 | Growth Rate (U2OS; 12 h, replicate number 2): 0.51; Growth Rate (U2OS; 18 h, replicate number 2): 0.61; Growth Rate (Fibroblast; 0 h, replicate number 1): -1 |
| Cc1cc(-c2cnc(N)c3c(-c4ccc5scnc5c4)csc23)n(C)n1 | 0.91 | 0.94 | 0.91 | – | – | -0.34 | – | -0.15 | – | 0.02 | – | 0.06 | – | 0.42 | 0.67 | 0.91 | 0.9 | – | 0.92 | 0.88 | Growth Rate (U2OS; 0 h, replicate number 1): -0.98; Growth Rate (U2OS; 0 h, replicate number 2): -0.85; Growth Rate (U2OS; 12 h, replicate number 2): -0.33; Growth Rate (Fibroblast; 0 h, replicate number 1): -1; Growth Rate (Fibroblast; 6 h, replicate number 2): 0.31 |
| CN(C)C/C=C/C(=O)Nc1cccc(S(=O)(=O)N2CCC(NC(=O)c3n[nH]cc3NC(=O)c3c(Cl)cc(Cl)cc3Cl)CC2)c1 | 0.35 | 0.1 | -0.42 | -0.51 | -0.42 | -0.58 | -0.85 | -0.49 | -0.7 | -0.34 | -0.61 | -0.05 | -0.34 | 0.8 | 0.45 | 0.26 | 0.09 | 0.12 | -0.13 | – | Growth Rate (U2OS; 12 h, replicate number 2): -0.3; Growth Rate (U2OS; 18 h, replicate number 2): -0.38; Growth Rate (Fibroblast; 6 h, replicate number 2): 0.98 |
| CC(C)(C)c1cnc(CSc2cnc(NC(=O)C3CCN(CC(=O)NCCOCCOCCOCCNc4cccc5c4C(=O)N(C4CCC(=O)NC4=O)C5=O)CC3)s2)o1 (centres undefined) | 0.25 | 0.31 | 0.16 | -0.05 | -0.04 | -0.56 | -0.74 | -0.47 | -0.62 | -0.38 | -0.5 | -0.29 | -0.39 | -0.04 | -0.09 | -0.02 | -0.15 | 0.11 | -0.12 | 0.1 | Growth Rate (U2OS; 0 h, replicate number 2): 0.98; Growth Rate (U2OS; 6 h, replicate number 1): 0.29; Growth Rate (U2OS; 12 h, replicate number 2): 0.19; Growth Rate (U2OS; 18 h, replicate number 2): -0.02; Growth Rate (Fibroblast; 0 h, replicate number 1): -0.99; Growth Rate (Fibroblast; 6 h, replicate number 2): 0.11 |
| COc1cc(N2CCN(C)CC2)ccc1Nc1ncc2c(n1)N(C)c1ccccc1C(=O)N2CC(F)(F)F | 0.9 | 0.97 | 0.99 | – | 0.83 | -0.03 | 0 | 0.26 | 0.22 | 0.22 | 0.29 | 0.27 | 0.36 | 0.43 | 0.51 | 0.09 | 0.31 | -0.1 | 0.08 | 0.44 | Growth Rate (U2OS; 18 h, replicate number 2): 0.87; Growth Rate (Fibroblast; 6 h, replicate number 2): 0.47 |
| CC(C)(C)c1cc(NC(=O)c2csc(Nc3ccccn3)n2)no1 | – | 0.72 | 0.81 | 0.65 | 0.97 | -0.14 | -0.51 | 0.04 | -0.02 | 0.08 | 0.01 | 0.31 | 0.2 | 0.84 | 0.03 | 0.21 | 0.35 | 0.31 | 0.35 | 0.76 | Growth Rate (U2OS; 0 h, replicate number 1): 0.58; Growth Rate (U2OS; 6 h, replicate number 1): 0.51; Growth Rate (U2OS; 12 h, replicate number 2): 0.69; Growth Rate (Fibroblast; 6 h, replicate number 2): -0.67 |
| CC(C)c1cnn2c(NCc3ccccc3)cc(NCCCCCCN)nc12.Cl | 0.69 | 0.99 | 0.92 | 0.87 | 0.71 | -0.19 | -0.03 | 0.25 | 0.46 | 0.64 | 0.6 | 0.65 | 0.66 | 0.36 | 0.65 | 0.9 | 0.69 | 1 | 0.87 | 0.36 | Growth Rate (U2OS; 0 h, replicate number 2): 0.64; Growth Rate (U2OS; 12 h, replicate number 2): 0.78; Growth Rate (U2OS; 18 h, replicate number 2): 0.76; Growth Rate (Fibroblast; 0 h, replicate number 2): -0.08; Growth Rate (Fibroblast; 6 h, replicate number 2): 0.27 |
| CC(=O)c1c(C)c2cnc(Nc3ccc(N4CCN(CCCCNC(=O)COc5cccc6c5C(=O)N(C5CCC(=O)NC5=O)C6=O)CC4)cn3)nc2n(C2CCCC2)c1=O (centres undefined) | 0.97 | 0.99 | – | 1 | – | 0.75 | – | 0.82 | 0.85 | 0.85 | 0.98 | 0.91 | – | – | – | – | – | 0.88 | – | 0.72 | Growth Rate (U2OS; 0 h, replicate number 2): 0.65; Growth Rate (Fibroblast; 0 h, replicate number 2): 0.14 |
| Cc1c(CN2CCC3(CC2)CN(c2ncnc4sc(CC(F)(F)F)cc24)C3)ccc2c1cc(C#N)n2CC(N)=O | – | – | – | 0.94 | – | 0.58 | -0.05 | 0.59 | 0.34 | 0.63 | 0.44 | 0.69 | 0.47 | -0.4 | -0.34 | -0.16 | -0.22 | -0.05 | 0.09 | -0.45 | Growth Rate (U2OS; 0 h, replicate number 2): 0.3; Growth Rate (U2OS; 6 h, replicate number 1): 1; Growth Rate (Fibroblast; 0 h, replicate number 1): -1; Growth Rate (Fibroblast; 6 h, replicate number 2): -0.88 |
| CCCNc1ccc2ncc(-c3ccncc3)n2n1 | – | 0.48 | 0.14 | 0.15 | 0.45 | -0.19 | -0.3 | -0.26 | -0.13 | -0.11 | – | 0.02 | -0.01 | 0.2 | 0.09 | 0.11 | 0.04 | 0.13 | 0.09 | 0.14 | Growth Rate (U2OS; 0 h, replicate number 1): -1; Growth Rate (U2OS; 6 h, replicate number 1): 0.96; Growth Rate (U2OS; 18 h, replicate number 2): 0.66; Growth Rate (Fibroblast; 0 h, replicate number 2): 0.59; Growth Rate (Fibroblast; 6 h, replicate number 2): 0.27 |
